From PubChem BioAssay AID330 (DTP/NCI, 2004)
Toxic doses and inconclusive results are not listed. The calls were made as follows: active = survival T/C of 150% or more; inactive = T/C below 125% in these data.

Test system: P388 leukemia ip, CD2F1 mice, survival T/C
Assay: NCI In Vivo Anticancer Drug Screen. Data for tumor model P388 Leukemia (intraperitoneal) in CD2F1 (CDF1) mice
Conditions: endpoint: median survival time, higher = longer survival
How it was run: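 Mice carrying the transplanted tumor received test compound or vehicle. Survival was recorded in each group, and the value is the treated-group measurement divided by that of the vehicle-treated control group.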

Measured: T/C

CCCCCCCCCC(=O)Oc1c2ccoc2cc2oc(=O)ccc12
inactive: dose: 100.0 mg/kg/injection, schedule: Q01DX001 (ip), vehicle: Klucel (hydroxypropylcellulose) (HPC) 98 % of control | dose: 200.0 mg/kg/injection, schedule: Q01DX001 (ip), vehicle: Klucel (hydroxypropylcellulose) (HPC) 91 % of control | dose: 400.0 mg/kg/injection, schedule: Q01DX001 (ip), vehicle: Klucel (hydroxypropylcellulose) (HPC) 103 % of control

CC1COCC(C)OC(C)COCC(C)OC(=O)COCC(=O)O1 (centres undefined)
inactive: dose: 100.0 mg/kg/injection, schedule: Q04DX003 (ip), vehicle: Klucel (hydroxypropylcellulose) (HPC) 104 % of control | dose: 200.0 mg/kg/injection, schedule: Q04DX003 (ip), vehicle: Klucel (hydroxypropylcellulose) (HPC) 110 % of control | dose: 400.0 mg/kg/injection, schedule: Q04DX003 (ip), vehicle: Klucel (hydroxypropylcellulose) (HPC) 103 % of control

CC(C)(C)C=O
inactive: dose: 100.0 mg/kg/injection, schedule: Q04DX003 (ip), vehicle: saline 100 % of control | dose: 200.0 mg/kg/injection, schedule: Q04DX003 (ip), vehicle: saline 100 % of control | dose: 400.0 mg/kg/injection, schedule: Q04DX003 (ip), vehicle: saline 100 % of control
